In patent US20130274705A1, “FEEDBACK-BASED DIURETIC OR NATRIURETIC MOLECULE ADMINISTRATION” (MEDTRONIC, INC., priority 2012, published 2013):

What was measured:
[1] = test system: anesthetized, mechanically ventilated male dog; assay: NICOM study: cardiac data in an anesthetized, mechanically ventilated dog; assay type: in vivo; conditions: measured by NICOM monitor
From the text: A noninvasive cardiac output monitoring (NICOM) monitor was utilized to measure cardiac data from an anesthetized, mechanically ventilated, 54 lb, 42 inch (nose to base of tail) male dog. FIGS. 20-24 depict the cardiac data measured by the NICOM monitor.
The gap in data at 11:20 indicates electrocautery interference when the chest of the dog was opened. FIG. 21 depicts the data in response to sequential fluid boluses. An approximate 20% increase in CO was detected reflecting changes in both SV and HR. […] FIG. 23 depicts the cardiodepressant effect of the ultra-short beta-blocker esmolol given after dobutamine and recalibration. […] FIG. 24 depicts the response to increasing blood pressure with phenylephrine followed by decreasing blood pressure with sodium nitroprusside (SNP). Prior to this intervention, the dog chest had been opened and commercially available flow monitors had been implanted on the pulmonary artery (PA). Baseline PA flow data, which was measured by the implantable monitors, was 2.7 L/min. The PA flow data measured by the NICOM monitor was 2.812 L/min.

[2] = test system: Dahl/SS rats; assay: Pharmacodynamic study of VD in Dahl/SS rats on 4% salt diet (blood pressure); assay type: in vivo, rat; conditions: for blood pressure compared with 4% vehicle control group at week 3: week 3, p-value<0.05
Experimental: The pharmacodynamic effects of VD were investigated in a rat model. Forty male Dahl/SS rats were shipped to the animal facilities at PhysioGenix, Inc. (Milwaukee, Wis.). The rats were maintained on a low-salt diet and allowed to acclimate. After acclimation, animals had baseline parameters collected while on the low-salt diet. Baseline tail-cuff blood pressures and echocardiograms were measured. Baseline urine was collected for analysis of protein and albumin. Animals were then randomly assigned to one of 4 groups (10 animals per group):
1. Vehicle Control; low-salt diet, n=10 2. Vehicle Control; 4% salt diet, n=10 3. Vessel dilator, 100 ng/kg/min, 4% salt diet, n=10 4. Vessel dilator, 300 ng/kg/min, 4% salt diet, n=10
Lyophilized VD peptide (Bachem) was reconstituted in a Tris buffer having the same composition as the Tris buffer used in Example 7. The vehicle control groups were infused with a citrate-mannitol-saline buffer (0.66 mg/mL citric acid, 6.43 mg/mL sodium citrate, 40 mg/mL mannitol, 9 mg/mL NaCl). The animals were on a Teklad 7034 (low-salt) diet or Dyets AIN-76A 4% salt diet, as indicated, throughout a 6 week course of the study and had free access to water.
Alzet® minipumps (Durect, Corp.) were surgically implanted on Days 1, 15, and 29 of the study to maintain continuous vehicle or drug dispensing at the desired dose for a total period of 6 weeks. Urine was collected at baseline, 2, 4 and 6 weeks after the initiation of the treatment to assess proteinuria and albuminuria. After six weeks of treatment, the animals were then euthanized.

[3] = test system: canine model high-rate paced (HRP) to simulate HF; assay: Pharmacodynamic study of VD by continuous subcutaneous infusion in high-rate paced canine heart failure model; assay type: in vivo; conditions: SQ infusion 100 ng/kg·min
Experimental: FIGS. 16 and 17 show the mean right atrial pressure and the mean pulmonary capillary wedge pressure, respectively, for control and experimental groups of a canine model high-rate paced (HRP). A pharmaceutical formulation of VD was prepared in a Tris buffer. 16.0 g glycerol, 6.05 g tris-(hydroxymethyl)-aminomethane (“Tris”), 2.50 g meta cresol were mixed in a 1.00 L volumetric flask. Approximately 900 mL nanopure water was added to the volumetric flask and the mixture was magnetically stirred to reach complete dissolution. 4 normal hydrochloric acid was used to adjust pH to 7.3 at 25° C. Then, the flask was filled to 1 L mark with nanopure water. The pH was rechecked and verified to be 7.3 at 25° C. The pH 7.3 Tris buffer was stored at 2-8° C. until use.
Lyophilized VD peptide (Bachem) was weighted into a glass vial and dissolved into a known volume of the Tris buffer to a concentration between 1 mg/mL and 10 mg/mL. The VD peptide was dissolved by gentle mixing and the solution was allowed to rest for between 20 and 30 minutes. The pH of the solution was checked and adjusted to 7.3 with 0.1 N sodium hydroxide. The solution was filtered through a 0.22 micron sterile filter into a sterile glass vial and stored at 2 to 8° C. until use.
The pharmacodynamic effects of VD delivered by subcutaneous infusion were investigated in a canine model high-rate paced (HRP) to a heart rate of 240 bpm (ventricular pacing) over a period of 10 days to simulate HF. The canines were divided into a control group and an experimental group. The control group received a continuous subcutaneous infusion of the Tris buffer without VD over the course of the 10 day period. The experimental group received continuous subcutaneous infusion of VD dissolved in Tris buffer at a dosing rate of 100 ng/kg·min based upon the body weight of individual canines.
Seven days prior to the beginning of HRP (Day −7), all dogs were instrumented for ventricular pacing with an IPG (implantable pulse generator) including an RA (right atrium) and RV (right ventricle) lead, and a DSI ([…]) device in the femoral artery for arterial blood pressure monitoring. Glomerular filtration rate (GFR) was measured by iohexol clearance on the day before the beginning of HRP (Day −1). On Day 0, high-rate pacing was initiated at a rate of 240 BPM (beats per minute) and maintained continuously over the course of a 10 day period (Days 0-10). After HRP was started on Day 0, urine, blood, and hemodynamic data was collected from conscious animals to serve as a baseline. […]

CNC[C@H](O)c1cccc(O)c1 [Phenylephrine, phenylephrine]
effect on cardiac output (CO) [1]: reduced CO | effect on heart rate (HR) [1]: reflex slowing of the HR

CC(CCc1ccc(O)cc1)NCCc1ccc(O)c(O)c1 (centres unmarked) [dobutamine]
effect on cardiac output (CO) [1]: marked increase in CO

COC(=O)CCc1ccc(OCC(O)CNC(C)C)cc1 (centres unmarked) [esmolol]
effect on cardiac output (CO) [1]: marked decline in CO

vessel dilator (EVVPPQVLSEPNEEAGAALSPLPEVPPWTGEVSPAQR; Vessel dilator; UniProt P01160 56-92, looked up) [VD, Natriuretic peptide of the ANP hormones; lyophilized VD peptide (Bachem) dissolved in Tris buffer]
blood pressure compared with vehicle control group on 4% salt diet ([2]; high-dose VD 300 ng/kg/min SQ infusion): attenuated blood pressure | blood pressure compared with 4% vehicle control group at week 3 ([2]; high-dose VD 300 ng/kg/min): statistically significant decrease in blood pressure | decrease in blood pressure compared with 4% vehicle control group at week 5 ([2]; high-dose VD 300 ng/kg/min): not as statistically significant | blood pressure compared with vehicle control group on 4% salt diet ([2]; low-dose VD 100 ng/kg/min SQ infusion): attenuated blood pressure | blood pressure compared with 4% vehicle control group at week 3 ([2]; low-dose VD 100 ng/kg/min): statistically significant decrease in blood pressure | decrease in blood pressure compared with 4% vehicle control group at week 5 ([2]; low-dose VD 100 ng/kg/min): not as statistically significant | increase in right atrial pressure compared with control group ([3]; Day 10, p-value<0.05): significantly less than for the control group | change in mean right atrial pressure from Day 0 to Day 10 ([3]; HRP 240 bpm, 10 days): increased slightly | difference in pulmonary capillary wedge pressure between control and experimental group on Day 10 ([3]; alpha 0.05, two-way repeated measures ANOVA): does not appear to be statistically significant | extent of increase in pulmonary capillary wedge pressure from Day 0 to Day 10 ([3]; versus control group): smaller than that observed in the control group
